In US9023789B2, “Amylin analogs and pharmaceutical compositions thereof” (Novo Nordisk A/S, priority 2012, dated 2015):
“Also recorded” adds a separate entry of the source. Read-outs that look alike come from different tables or passages of the source. Bridge positions count the residues as written; N and C are the ends. Ends that are not written are not given here.

How the values were obtained:
Male Sprague-Dawley rats = assay: ASSAY (XI) single subcutaneous administration, food intake monitored for 48 hours in rats; assay type: in vivo, rat; conditions: for Food intake red (%) 0-24 h / Food intake red (%) 24-48 h: single s.c., compared to vehicle
From the text: Assay (XI)—Effect from Single Subcutaneous Administration of Analogue on Plasma Calcium in Rats
Male Sprague-Dawley rats (Taconic Europe, ˜250 g at test date) were acclimatized to reversed day light cycle (lights on from 10 PM to 10 AM) and single housing in online food intake monitoring system (Ellegaard MBRose, Denmark) prior to study start. […] Data are illustrated in graphs as mean±SEM.

Male Wistar rats = assay: ASSAY (XII) effect from single subcutaneous administration on plasma calcium in rats; assay type: in vivo, rat; conditions: for Plasma calcium red (%) 0-12 h (maximal): single s.c., compared to vehicle
Procedure: Assay (XII)—Effect from Single Subcutaneous Administration of Analogue on Plasma Calcium in Rats
Male Wistar rats (Taconic Europe, ˜250 g at test date) were acclimatized to handling prior to the study. Rats were divided in groups of five and subcutaneously dosed with test compound at time=0. At time T=−15 min; 1 h, 2 h, 4 h, 7 h, 12 h, and 24 h a blood sample was obtained and heparin stabilized plasma was analysed for total calcium (Cobas, Hitachi). Data are illustrated in graphs as mean±SEM.

Sprague Dawley (SD) rats = assay: ASSAY (I) efficacy testing on appetite (food intake) using an ad libitum fed rat model; assay type: in vivo; conditions: rats, single subcutaneous 1000 nmol/kg injection
From the text: Sprague Dawley (SD) rats from Taconic Europe, Denmark are used for the experiments. The rats have a body weight 200-250 g at the start of experiment. The rats arrive at least 10-14 days before start of experiment to allow acclimatization to experimental settings. During this period the animals are handled at least 2 times. After arrival rats are housed individually for one week in a reversed light/dark phase (meaning that lights are off during daytime and on during nighttime) for two weeks. Since rats are normally active and eat their major part of their daily food intake during the dark period, rats are dosed in the morning right before lights are turned off. This set-up results in the lowest data variation and highst test sensitivity. The experiment is conducted in the rats' home cages and rats have free access to food and water throughout the acclimatization period and the experiment period. Each dose of derivative is tested in a group of 5-8 rats. A vehicle group of 6-8 rats is included in each set of testing. Rats are dosed once according to body weight with a 0.01-3 mg/kg solution administered intraperitoneally (ip), orally (po) or subcutaneously (sc). The time of dosing is recorded for each group. After dosing, the rats are returned to their home cages, where they then have access to food and water. The food consumption is recorded individually continuously by online registration or manually every hour for 7 hours, and then after 24 h and sometimes 48 h. At the end of the experimental session, the animals are euthanized.
The individual data are recorded in Microsoft excel sheets. Outliers are excluded after applying the Grubbs statistical evaluation test for outliers, and the result is presented graphically using the GraphPad Prism program.

[1] = tested on: amylin receptor / calcitonin receptor; conditions: background statement, cited from earlier work

With CC(C)C[C@H](NC(=O)[C@H](CCCCN)NC(=O)CNC(=O)[C@H](CC(C)C)NC(=O)[C@@H](NC(=O)[C@@H]1CSSC[C@H](N)C(=O)N[C@@H](CO)C(=O)N[C@@H](CC(N)=O)C(=O)N[C@@H](CC(C)C)C(=O)N[C@@H](CO)C(=O)N[C@@H]([C@@H](C)O)C(=O)N1)C(C)C)C(=O)N[C@@H](CO)C(=O)N[C@@H](CCC(N)=O)C(=O)N[C@@H](CCC(=O)O)C(=O)N[C@@H](CC(C)C)C(=O)N[C@@H](Cc1c[nH]cn1)C(=O)N[C@@H](CCCCN)C(=O)N[C@@H](CC(C)C)C(=O)N[C@@H](CCC(N)=O)C(=O)N[C@H](C(=O)N[C@@H](Cc1ccc(O)cc1)C(=O)N1CCC[C@H]1C(=O)N[C@@H](CCCNC(=N)N)C(=O)N[C@H](C(=O)N[C@@H](CC(N)=O)C(=O)N[C@H](C(=O)NCC(=O)N[C@@H](CO)C(=O)NCC(=O)N[C@H](C(=O)N1CCC[C@H]1C(N)=O)[C@@H](C)O)[C@@H](C)O)[C@@H](C)O)[C@@H](C)O [salmon calcitonin, reference compound] the “Food intake red (%) 0-24 h” value (Male Sprague-Dawley rats; 30 nmol/kg) was 87%, the “Food intake red (%) 24-48 h” value (Male Sprague-Dawley rats; 30 nmol/kg) was 19% and the “food intake monitored over 48 hours” value (Male Sprague-Dawley rats; single subcutaneous administration, 30 nmol/kg, versus vehicle) was “reduction of food intake; also recorded: reduces food intake”. The plasma calcium (Male Wistar rats; dose 30 nmol/kg) was “below 1.7 mM”, the “Plasma calcium red (%) 0-12 h (maximal)” value (Male Wistar rats; 3 nmol/kg) was 35% and the “Plasma calcium red (%) 0-12 h (maximal)” value (Male Wistar rats; 30 nmol/kg) was 39%.
For “Pramlintide (KCNTATCATQRLANFLVHSSNNFGPILPPTNVGSNTY-NH2; disulfide 2-7; UniProt P10997 34-70, looked up, variant A25P S28P S29P) [reference compound]”, the “reduction of food intake” value (Sprague Dawley (SD) rats) was 25%, the “Food intake red (%) 0-24 h” value (Male Sprague-Dawley rats; 1000 nmol/kg) was 25% and the “Food intake red (%) 24-48 h” value (Male Sprague-Dawley rats; 1000 nmol/kg) was 0%. For the same molecule, the “Plasma calcium red (%) 0-12 h (maximal)” value (Male Wistar rats; 1000 nmol/kg) was 28%, the “potency on the amylin receptor relative to the calcitonin receptor” value [1] was “approximately 14 times” and the “potency on the amylin receptor relative to the calcitonin receptor” value ([1]; listed as pramlintide) was 14 times.
